Source: ChEMBL document CHEMBL1201862, “PubChem BioAssay data set” (2004)
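Grown in 96-well plates, cells were treated for 48 hours with each compound at five concentrations. Insufficient inhibition: endpoint recorded as highest concentration tested. GI50 marks 50% less growth.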 Active and inactive are the calls of the source. Cut-off read from the data, not from the text of the source: active = GI50 up to about 1.1 µM and inactive = higher.

Columns and labels:
Assay in all cases: NCI anticancer screen, dose series, 48 h
786-0 = tested on: 786-0
BT-549 = tested on: BT-549
CAKI-1 = tested on: CAKI-1
CCRF-CEM = tested on: CCRF-CEM
HCT-15 = tested on: HCT-15
Hs-578T = tested on: Hs-578T
K562 = tested on: K562
KM12 = tested on: KM12
LOX IMVI = tested on: LOX IMVI
MDA-MB-435 = tested on: MDA-MB-435
NCI-H23 = tested on: NCI-H23
NCI/ADR-RES = tested on: NCI/ADR-RES
OVCAR-8 = tested on: OVCAR-8
SF-268 = tested on: SF-268
SF-295 = tested on: SF-295
SK-MEL-5 = tested on: SK-MEL-5
SN12C = tested on: SN12C
T47D = tested on: T47D
UACC-62 = tested on: UACC-62

| SMILES | GI50 (786-0) | GI50 (BT-549) | GI50 (CAKI-1) | GI50 (CCRF-CEM) | GI50 (HCT-15) [µM] | GI50 (Hs-578T) | GI50 (K562) | GI50 (KM12) | GI50 (LOX IMVI) | GI50 (MDA-MB-435) | GI50 (NCI-H23) | GI50 (NCI/ADR-RES) | GI50 (OVCAR-8) | GI50 (SF-268) | GI50 (SF-295) | GI50 (SK-MEL-5) | GI50 (SN12C) | GI50 (T47D) | GI50 (UACC-62) |
| --- | --- | --- | --- | --- | --- | --- | --- | --- | --- | --- | --- | --- | --- | --- | --- | --- | --- | --- | --- |
| CC1(C)CC[C@]2(C(=O)O)CC[C@]3(C)C(=CC[C@@H]4[C@@]5(C)C[C@H](O)[C@H](O)[C@@](C)(C(=O)O)[C@@H]5CC[C@]43C)[C@@H]2C1 | > 100 µM (inactive) | > 100 µM (inactive) | > 100 µM (inactive) | > 100 µM (inactive) | > 100 | > 100 µM (inactive) | 78.3 µM (inactive) | > 79.1 µM (inactive) | > 100 µM (inactive) | > 100 µM (inactive) | > 100 µM (inactive) | > 100 µM (inactive) | > 100 µM (inactive) | > 100 µM (inactive) | > 100 µM (inactive) | > 100 µM (inactive) | > 100 µM (inactive) | > 100 µM (inactive) | > 54.6 µM (inactive) |
| O=C(O)c1nnsc1COCc1ccccc1 | > 100 µM (inactive) | > 100 µM (inactive) | > 100 µM (inactive) | > 100 µM (inactive) | > 100 | > 100 µM (inactive) | > 100 µM (inactive) | > 100 µM (inactive) | > 100 µM (inactive) | > 100 µM (inactive) | > 100 µM (inactive) | > 100 µM (inactive) | > 100 µM (inactive) | > 100 µM (inactive) | > 100 µM (inactive) | > 100 µM (inactive) | > 100 µM (inactive) | > 100 µM (inactive) | > 100 µM (inactive) |
| COC(=O)CC(C#N)(OP1(=O)OC(c2ccccc2)C(C)N1C)c1ccccc1 (stereo not given) | 24 µM (inactive) | 36.2 µM (inactive) | 25.4 µM (inactive) | 11.5 µM (inactive) | 28.6 | 30.3 µM (inactive) | 24.3 µM (inactive) | 20.6 µM (inactive) | 21 µM (inactive) | 21.4 µM (inactive) | 31.5 µM (inactive) | 40.1 µM (inactive) | 22.8 µM (inactive) | 30.3 µM (inactive) | 42 µM (inactive) | 64.3 µM (inactive) | 29.6 µM (inactive) | 28.1 µM (inactive) | 19.8 µM (inactive) |
| CC1(C)N[PH]2(Nc3ccccc3O2)OC1=O | > 100 µM (inactive) | 18.6 µM (inactive) | 66.2 µM (inactive) | 41.2 µM (inactive) | 64.9 | > 100 µM (inactive) | 37.9 µM (inactive) | > 100 µM (inactive) | 18.3 µM (inactive) | 16.4 µM (inactive) | 67.9 µM (inactive) | 49.9 µM (inactive) | 82.8 µM (inactive) | > 100 µM (inactive) | 24.7 µM (inactive) | 24.3 µM (inactive) | > 100 µM (inactive) | > 100 µM (inactive) | 18.6 µM (inactive) |
| Cc1cc(N(CCC#N)CCC#N)ccc1/C=C(\NC(=O)/C=C/c1ccccc1)C(=O)Nc1ccc(Cl)cc1 | > 100 µM (inactive) | > 100 µM (inactive) | > 28.3 µM (inactive) | 2.44 µM (inactive) | 11.7 | > 100 µM (inactive) | 0.364 µM (active) | 3.74 µM (inactive) | 1.14 µM (inactive) | 1.94 µM (inactive) | > 63.1 µM (inactive) | > 100 µM (inactive) | > 100 µM (inactive) | > 100 µM (inactive) | 4.86 µM (inactive) | 0.179 µM (active) | > 75.7 µM (inactive) | > 100 µM (inactive) | 0.577 µM (active) |
| COc1ccc(-c2coc3c4c(ccc3c2=O)OCO4)cc1OC | 35.4 µM (inactive) | 14.9 µM (inactive) | 91.6 µM (inactive) | > 100 µM (inactive) | 18 | 26.4 µM (inactive) | 7.6 µM (inactive) | 83.6 µM (inactive) | 98.2 µM (inactive) | 5.87 µM (inactive) | 25 µM (inactive) | 35.8 µM (inactive) | 38 µM (inactive) | 34 µM (inactive) | 27.9 µM (inactive) | 55.5 µM (inactive) | > 100 µM (inactive) | > 100 µM (inactive) | 44.9 µM (inactive) |
| CC(C)=CC(=O)C[C@H]1C(=O)O[C@@H]2C[C@H]3C(C)=CC(=O)[C@@H](O)[C@]3(C)[C@H]3[C@@]4(O)OC[C@]32[C@@H]1[C@@H](C)[C@H]4O | 0.0266 µM (active) | 0.0213 µM (active) | 0.0975 µM (active) | < 0.01 µM (active) | 0.0382 | 0.029 µM (active) | < 0.01 µM (active) | < 0.0169 µM (active) | < 0.01 µM (active) | 0.0222 µM (active) | < 0.01 µM (active) | 0.631 µM (active) | < 0.01 µM (active) | 0.0275 µM (active) | 0.023 µM (active) | < 0.01 µM (active) | 0.043 µM (active) | < 0.0111 µM (active) | 0.0313 µM (active) |
| COC(=O)C1=C(OC(=O)/C(=C/c2ccc(Cl)cc2)c2ccccc2)C(C(=O)OC)[C@@]2(O)[C@@H](C(=O)OC)[C@H](C)C[C@@H]1[C@@H]2C(=O)OC (stereo not given in full) | > 100 µM (inactive) | 22.2 µM (inactive) | > 100 µM (inactive) | > 100 µM (inactive) | > 100 | 37 µM (inactive) | > 100 µM (inactive) | > 100 µM (inactive) | > 100 µM (inactive) | > 100 µM (inactive) | 9.73 µM (inactive) | 37.4 µM (inactive) | 4.45 µM (inactive) | > 100 µM (inactive) | 6.79 µM (inactive) | > 100 µM (inactive) | > 100 µM (inactive) | > 100 µM (inactive) | 83.6 µM (inactive) |
| COc1ccc(CCNC(=O)Cc2cc(OC)c(OC)cc2CO)cc1OC | > 100 µM (inactive) | > 100 µM (inactive) | > 100 µM (inactive) | > 100 µM (inactive) | > 100 | > 100 µM (inactive) | > 100 µM (inactive) | > 100 µM (inactive) | > 100 µM (inactive) | > 100 µM (inactive) | > 100 µM (inactive) | > 100 µM (inactive) | > 100 µM (inactive) | > 100 µM (inactive) | > 100 µM (inactive) | > 100 µM (inactive) | > 100 µM (inactive) | > 100 µM (inactive) | > 100 µM (inactive) |
| COc1cccc(-c2nc(N)c(C#N)c3c2CCS(=O)(=O)c2ccc(C)cc2-3)c1 | 22.6 µM (inactive) | 52 µM (inactive) | 9.98 µM (inactive) | 14.6 µM (inactive) | 7.87 | 13.3 µM (inactive) | 3.21 µM (inactive) | 7.85 µM (inactive) | 31.4 µM (inactive) | 4.85 µM (inactive) | 43.1 µM (inactive) | 15.2 µM (inactive) | 26.1 µM (inactive) | 31.6 µM (inactive) | 23.6 µM (inactive) | 5.81 µM (inactive) | 44.4 µM (inactive) | 43.2 µM (inactive) | 17.7 µM (inactive) |
